Test results from patent US8828678B2, “Self-immolative probes for enzyme activity detection” (Enzo Life Sciences, Inc., priority 2010, dated 2014).

Assays:
HeLa cells = assay: Combined detection of hypoxia and redox status in live cells by fluorescent microscopy; type: cell-based, human; settings: 5 μM; all four hypoxic samples (anoxia, CoCl2, DFO, DMOG)
Description: HeLa and U-2 OS cells were cultured as described in Example 7. Stock solutions of CD-1 and CD-5 and various hypoxia inducers were prepared and stored as described in Examples 7 and 8. Additionally, 5 mM stock solutions (5000×) of 2′,7′-dichloro-fluorescein diacetate (DCFDA, an indicator of global ROS generation) and dihydroethidium (DHE, specific indicator of superoxide generation) were made in anhydrous DMF. DMSO was avoided, since this solvent is a hydroxyl radical scavenger and its presence may affect ROS/RNS production in cellular systems. The following stocks of ROS inducers were prepared in DMF: 10 mM pyocyanin (general ROS generating compound, 100×), 20 mM antimycin A (general ROS inducer, 400×), 50 mM pyrogallol (a superoxide radical generator, 1000×), 1 mM t-butyl hydroperoxide (TBHP, peroxide radical inducer, 10,000×). ROS probes and inducers were aliquoted and stored at −80° C.
The day before the experiment, the cells were seeded on 4-well microscope slides (Cel-Line™ Brand, Portsmouth, N.H.) at a density 1×10^4 cells/well (2×10^4 cells/cm^2). On the day of the experiment, the cells were preloaded with both hypoxia probe (5 μM final concentration in cell culture medium) and ROS detecting reagent with suitable spectral characteristics. Two ROS-detecting probes, DCFDA and DHE, were used in a pilot experiment in conjunction with hypoxia self-immolative probes. The hydrolyzed product of DCFDA, DCFH, is considered to be a general indicator of ROS, reacting with H2O2 (in the presence of peroxidases), ONOO^−, lipid hydroperoxides, and hydroxyl radicals. The oxidized product can be detected by strong fluorescence emission at around 525 nm when excited at around 488 nm. Because H2O2 is a secondary product of O2.^−, DCFH fluorescence has been used to implicate O2.^− production. The direct reaction of DHE with O2.^− yields a very specific fluorescent product, requiring no conversion to H2O2. The product of the DHE reaction with O2.^− fluoresces strongly at around 600 nm when excited at 500-530 nm.
Tested pairs of the probes were as follows: CD-5 with DCFDA or DHE, and CD-1 with DHE. A hypoxic state was induced in the cells as described in Example 7. Control slides were singly-stained with hypoxia or ROS-detecting probes only. Additional slides were treated with different general and specific ROS inducers and stained with ROS-detecting probes to control ROS staining. Post-treatment, the slides were washed twice with PBS, coverslipped and visualized using an Olympus BX-51 fluorescence microscope and a DAPI filter set (350 ex/470em) for CD-5, an FITC filter set (490ex/525em) for CD-1 or for total ROS detection reagent, and an orange filter set (550ex/620em) for HE.

Jurkat cells = assay: Detection of hypoxia using flow cytometry; type: cell-based, human; settings: 5 μM CD-1, 1 μM CD-6, versus vehicle-treated loaded cells
Description: HeLa and U-2 OS cells were cultured as described in Example 7. Human Jurkat T-cell leukemia cells (the A3 subclone) was obtained from ATCC and routinely cultured in RPMI-1640 medium (ATCC) supplemented with 10% fetal bovine serum (ATCC) and 100 U/ml penicillin+100 μg/ml streptomycin (Sigma-Aldrich). Cell cultures were maintained in an incubator at 37° C., with 5% CO2 atmosphere. CD-1, CD-4 and CD-6 self-immolative hypoxia probes were prepared as described in Example 8. All hypoxia inducers stocks were prepared as described in Example 7.
The day before the experiment, HeLa and U-2 OS cells were seeded in 6-well tissue culture plates at a density 5×10^5 cells/well. […] Post-treatment, the adherent cells (HeLa and U-2 OS) were collected by trypsinization, re-suspended in 0.5 mL of fresh PBS and analyzed using flow cytometry. Jurkat cells were analyzed without washing.
Flow cytometry experiments were performed using a FACS Calibur benchtop flow cytometer (BD Biosciences) equipped with a blue (488 nm) laser, and the fluorescence was recorded in the FITC (530/30 filter), PE (585/42 filter) and PerCP (670 LP filter) channels. Hypoxic cells were detected by detecting increases in fluorescence. The degree of hypoxia (Khyp) can be quantified by using Kolmogorov-Smirnov statistics (Young, 1977) or the following formula: Khyp=(MFIhyp−MFIcon)/MFIhyp, […]

SMILES: O=C(Nc1ccc2c(c1)Oc1cc(NC(=O)N3CCOCC3)ccc1C21OC(=O)c2ccccc21)OCc1ccc([N+](=O)[O-])cc1 (centres unmarked) [CD-1]
- hypoxia probe fluorescent signal in hypoxic HeLa cells, multiplexed with ROS dyes (HeLa cells): bright fluorescent signal
- fluorescence in Jurkat cells treated with chemical hypoxia inducers or subjected to anoxia (Jurkat cells): fluorescence increase
